Results as given in US20250333424A1, “ANTIVIRAL COMPOUNDS” (Gilead Sciences, Inc., priority 2024, published 2025).

system: monocytic THP1 cells infected with HIV VSV-G pseudotyped GFP-NEF reporter virus; assay: cells; type: cell-based; conditions: Human immunodeficiency virus 1, THP-1, 24 h

| SMILES | EC50 [µM] |
| --- | --- |
| Cc1cc(/C=C/C#N)cc(C)c1Oc1nc(NC23CC(C#N)(C2)C3)nc2c1C(C)N(c1cnn(C3CC3)c1)C2=O (stereo not shown) [Example 224, (E)-3-((4-(4-(2-cyanovinyl)-2,6-dimethylphenoxy)-6-(1-cyclopropyl-1H-pyrazol-4-yl)-5-methyl-7-oxo-6,7-dihydro-5H-pyrrolo[3,4-d]pyrimidin-2-yl)amino)bicyclo[1.1.1]pentane-1-carbonitrile] | 0.0511 |
| Cc1cc(/C=C/C#N)cc(C)c1Oc1nc(NC23CC(C#N)(C2)C3)nc2c1C(C)N(c1cnn3c1CCC3)C2=O (stereo not shown) [Example 225, (E)-3-((4-(4-(2-cyanovinyl)-2,6-dimethylphenoxy)-6-(5,6-dihydro-4H-pyrrolo[1,2-b]pyrazol-3-yl)-5-methyl-7-oxo-6,7-dihydro-5H-pyrrolo[3,4-d]pyrimidin-2-yl)amino)bicyclo[1.1.1]pentane-1-carbonitrile] | 0.0518 |
| Cc1cc(/C=C/C#N)cc(C)c1Oc1nc(NC23CC(C#N)(C2)C3)nc2c1C(C)N(c1cnn(C(C)C)c1)C2=O (stereo not shown) [Example 226, (E)-3-((4-(4-(2-cyanovinyl)-2,6-dimethylphenoxy)-6-(1-isopropyl-1H-pyrazol-4-yl)-5-methyl-7-oxo-6,7-dihydro-5H-pyrrolo[3,4-d]pyrimidin-2-yl)amino)bicyclo[1.1.1]pentane-1-carbonitrile] | 0.0844 |
| Cc1cc(/C=C/C#N)cc(C)c1Oc1nc(NC23CC(C#N)(C2)C3)nc2c1C(C)N(c1cnn(C3CCC3)c1)C2=O (stereo not shown) [Example 227, (E)-3-((4-(4-(2-cyanovinyl)-2,6-dimethylphenoxy)-6-(1-cyclobutyl-1H-pyrazol-4-yl)-5-methyl-7-oxo-6,7-dihydro-5H-pyrrolo[3,4-d]pyrimidin-2-yl)amino)bicyclo[1.1.1]pentane-1-carbonitrile] | 0.115 |
| Cc1cc(/C=C/C#N)cc(C)c1Oc1nc(NC23CC(C#N)(C2)C3)nc2c1[C@H](C)N(c1cn[nH]c1)C2=O [Example 228, (S,E)-3-((4-(4-(2-cyanovinyl)-2,6-dimethylphenoxy)-5-methyl-7-oxo-6-(1H-pyrazol-4-yl)-6,7-dihydro-5H-pyrrolo[3,4-d]pyrimidin-2-yl)amino)bicyclo[1.1.1]pentane-1-carbonitrile] | 0.072 |
| Cc1cc(/C=C/C#N)cc(C)c1Oc1nc(NC23CC(C#N)(C2)C3)nc2c1C(O)(C(F)F)NC2=O (stereo not shown) [Example 229, (E)-3-((4-(4-(2-cyanovinyl)-2,6-dimethylphenoxy)-5-(difluoromethyl)-5-hydroxy-7-oxo-6,7-dihydro-5H-pyrrolo[3,4-d]pyrimidin-2-yl)amino)bicyclo[1.1.1]pentane-1-carbonitrile] | 0.123 |
| Cc1cc(/C=C/C#N)cc(C)c1Oc1nc(NC23CC(C#N)(C2)C3)nc2c1C(C)(C)N(c1cnn(C)c1)C2=O [Example 230, (E)-3-((4-(4-(2-cyanovinyl)-2,6-dimethylphenoxy)-5,5-dimethyl-6-(1-methyl-1H-pyrazol-4-yl)-7-oxo-6,7-dihydro-5H-pyrrolo[3,4-d]pyrimidin-2-yl)amino)bicyclo[1.1.1]pentane-1-carbonitrile] | 0.116 |
| Cc1cc(/C=C/C#N)cc(C)c1Oc1nc(NC23CC(C#N)(C2)C3)nc2nn(-c3ccn(C)n3)cc12 [Example 231, (E)-3-((4-(4-(2-cyanovinyl)-2,6-dimethylphenoxy)-2-(1-methyl-1H-pyrazol-3-yl)-2H-pyrazolo[3,4-d]pyrimidin-6-yl)amino)bicyclo[1.1.1]pentane-1-carbonitrile] | 0.0311 |
| Cc1cc(/C=C/C#N)cc(C)c1Oc1nc(NC23CC(C#N)(C2)C3)nc2nn(-c3cnn(C)c3)cc12 [Example 232, (E)-3-((4-(4-(2-cyanovinyl)-2,6-dimethylphenoxy)-2-(1-methyl-1H-pyrazol-4-yl)-2H-pyrazolo[3,4-d]pyrimidin-6-yl)amino)bicyclo[1.1.1]pentane-1-carbonitrile] | 0.11 |
| Cc1cc(/C=C/C#N)cc(C)c1Oc1nc(NC23CC(C#N)(C2)C3)nc2nn(C3CCOC3)cc12 [Example 233, (R,E)-3-((4-(4-(2-cyanovinyl)-2,6-dimethylphenoxy)-2-(tetrahydrofuran-3-yl)-2H-pyrazolo[3,4-d]pyrimidin-6-yl)amino)bicyclo[1.1.1]pentane-1-carbonitrile] | 0.158 |
| Cc1cc(/C=C/C#N)cc(C)c1Oc1nc(NC23CC(C#N)(C2)C3)nc2nn(CC(F)F)cc12 [Example 234, (E)-3-((4-(4-(2-cyanovinyl)-2,6-dimethylphenoxy)-2-(2,2-difluoroethyl)-2H-pyrazolo[3,4-d]pyrimidin-6-yl)amino)bicyclo[1.1.1]pentane-1-carbonitrile] | 0.332 |
| Cc1cc(/C=C/C#N)cc(C)c1Nc1nc(NC23CC(C#N)(C2)C3)nc2[nH]nc(C)c12 [Example 236, 3-[[4-[4-[(E)-2-cyanovinyl]-2,6-dimethyl-anilino]-3-methyl-11H-pyrazolo[3,4-d]pyrimidin-6-yl]amino]bicyclo[1.1.1]pentane-1-carbonitrile] | 0.217 |
| Cc1cc(/C=C/C#N)cc(C)c1Nc1nc(NC23CC(C#N)(C2)C3)nc2nn(C)cc12 [Example 237, 3-[[4-[4-[(E)-2-cyanovinyl]-2,6-dimethyl-anilino]-2-methyl-pyrazolo[3,4-d]pyrimidin-6-yl]amino]bicyclo[1.1.1]pentane-1-carbonitrile] | 0.119 |
| Cc1cc(/C=C/C#N)cc(C)c1Oc1nc(NC23CC(C#N)(C2)C3)nc2c1C(C)(O)N(CC(F)F)C2=O (stereo not shown) [Example 238, (E)-3-((4-(4-(2-cyanovinyl)-2,6-dimethylphenoxy)-6-(2,2-difluoroethyl)-5-hydroxy-5-methyl-7-oxo-6,7-dihydro-5H-pyrrolo[3,4-d]pyrimidin-2-yl)amino)bicyclo[1.1.1]pentane-1-carbonitrile] | 0.0924 |
| Cc1cc(/C=C/C#N)cc(C)c1Oc1nc(NC23CC(C#N)(C2)C3)nc2c1[C@@H](C)N(CC(F)F)C2=O [Example 239, (R,E)-3-((4-(4-(2-cyanovinyl)-2,6-dimethylphenoxy)-6-(2,2-difluoroethyl)-5-methyl-7-oxo-6,7-dihydro-5H-pyrrolo[3,4-d]pyrimidin-2-yl)amino)bicyclo[1.1.1]pentane-1-carbonitrile] | 0.0185 |
| Cc1cc(/C=C/C#N)cc(C)c1Oc1nc(NC23CC(C#N)(C2)C3)nc2c1[C@H](C)N(CC(F)F)C2=O [Example 240, (S,E)-3-((4-(4-(2-cyanovinyl)-2,6-dimethylphenoxy)-6-(2,2-difluoroethyl)-5-methyl-7-oxo-6,7-dihydro-5H-pyrrolo[3,4-d]pyrimidin-2-yl)amino)bicyclo[1.1.1]pentane-1-carbonitrile] | 0.0352 |
| Cc1cc(/C=C/C#N)cc(C)c1Oc1nc(NC23CC(C#N)(C2)C3)nc2c1C1(C)O[C@@H](C)CCN1C2=O (stereo partly drawn) [Example 241, 3-(((6S)-4-(4-((E)-2-cyanovinyl)-2,6-dimethylphenoxy)-4b,6-dimethyl-10-oxo-4b,7,8,10-tetrahydro-6H-pyrimido[5′,4′:3,4]pyrrolo[2,1-b][1,3]oxazin-2-yl)amino)bicyclo[1.1.1]pentane-1-carbonitrile] | 0.0348 |
| Cc1cc(/C=C/C#N)cc(C)c1Oc1nc(NC23CC(C#N)(C2)C3)nc2c1C1(C)SCCCN1C2=O (stereo not shown) [Example 246, (E)-3-((4-(4-(2-cyanovinyl)-2,6-dimethylphenoxy)-4b-methyl-10-oxo-4b,7,8,10-tetrahydro-6H-pyrimido[5′,4′:3,4]pyrrolo[2,1-b][1,3]thiazin-2-yl)amino)bicyclo[1.1.1]pentane-1-carbonitrile] | 0.0412 |
| Cc1cc(/C=C/C#N)cc(C)c1Oc1nc(NC23CC(C#N)(C2)C3)nc2c1[C@H](C(F)(F)F)NC2=O [Example 247, (R,E)-3-((4-(4-(2-cyanovinyl)-2,6-dimethylphenoxy)-7-oxo-5-(trifluoromethyl)-6,7-dihydro-5H-pyrrolo[3,4-d]pyrimidin-2-yl)amino)bicyclo[1.1.1]pentane-1-carbonitrile] | 0.0402 |
| Cc1cc(/C=C/C#N)cc(C)c1Oc1nc(NC23CC(C#N)(C2)C3)nc2ccn(C)c12 [Example 250, 3-[[4-[4-[(E)-2-cyanovinyl]-2,6-dimethyl-phenoxy]-5-methyl-pyrrolo[3,2-d]pyrimidin-2-yl]amino]bicyclo[1.1.1]pentane-1-carbonitrile] | 0.064 |
| Cc1cc(/C=C/C#N)cc(C)c1Oc1nc(NC23CC(C#N)(C2)C3)nc2c1C1(C)OCC(C(F)(F)F)CN1C2=O (stereo not shown) [Example 253, (E)-3-((4-(4-(2-cyanovinyl)-2,6-dimethylphenoxy)-4b-methyl-10-oxo-7-(trifluoromethyl)-4b,7,8,10-tetrahydro-6H-pyrimido[5′,4′:3,4]pyrrolo[2,1-b][1,3]oxazin-2-yl)amino)bicyclo[1.1.1]pentane-1-carbonitrile] | 0.253 |
| Cc1cc(/C=C/C#N)cc(C)c1Oc1nc(NC23CC(C#N)(C2)C3)nc2c1[C@@H](C(F)(F)F)NC2=O [Example 254, (S,E)-3-((4-(4-(2-cyanovinyl)-2,6-dimethylphenoxy)-7-oxo-5-(trifluoromethyl)-6,7-dihydro-5H-pyrrolo[3,4-d]pyrimidin-2-yl)amino)bicyclo[1.1.1]pentane-1-carbonitrile] | 0.0714 |
| COC(F)(F)C1NC(=O)c2nc(NC34CC(C#N)(C3)C4)nc(Oc3c(C)cc(/C=C/C#N)cc3C)c21 (stereo not shown) [Example 255, (E)-3-((4-2-((2-cyanovinyl)-2,6-dimethylphenoxy)-5-(difluoro(methoxy)methyl)-7-oxo-6,7-dihydro-5H-pyrrolo[3,4-d]pyrimidin-2-yl)amino)bicyclo[1.1.1]pentane-1-carbonitrile] | 0.0525 |
| Cc1cc(/C=C/C#N)cc(C)c1Oc1nc(NC23CC(C#N)(C2)C3)nc2nn3c(c12)CCCC3 [Example 256, (E)-3-((4-(4-(2-cyanovinyl)-2,6-dimethylphenoxy)-5,6,7,8-tetrahydropyrido[1′,2′:1,5]pyrazolo[3,4-d]pyrimidin-2-yl)amino)bicyclo[1.1.1]pentane-1-carbonitrile] | 0.0361 |
| Cc1cc(/C=C/C#N)cc(C)c1Oc1nc(NC23CC(C#N)(C2)C3)nc2nn3c(c12)CCC3 [Example 257, (E)-3-((4-(4-(2-cyanovinyl)-2,6-dimethylphenoxy)-6,7-dihydro-5H-pyrrolo[1′,2′:1,5]pyrazolo[3,4-d]pyrimidin-2-yl)amino)bicyclo[1.1.1]pentane-1-carbonitrile] | 0.0228 |
